Experimental data: US20230085307A1, “PYRIDAZINONE COMPOUND AND HERBICIDE” (NISSAN CHEMICAL CORPORATION, priority 2019, published 2023)

Assays:
late watergrass = experiment: Test Example 1: herbicidal activity, application before weed generation under submerged conditions (Table 16, symbol A); format: in vivo, late watergrass (Echinochloa oryzicola)
Method in brief: (§1)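 Alluvial soil was flooded to 4 cm depth, weed seeds were sown mixed and 2.5-leaf rice seedlings were transplanted. On sowing day, the compound's emulsion, diluted in water to a set dose, was applied to the water surface. Plants grew at 25–30 °C and were scored 0–5 after three weeks.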

Japanese bulrush = experiment: Test Example 1: herbicidal activity, application before weed generation under submerged conditions (Table 16, symbol B); format: in vivo, Japanese bulrush (Schoenoplectus juncoides)
Method in brief: as §1

oval-leafed pondweed = experiment: Test Example 1: herbicidal activity, application before weed generation under submerged conditions (Table 16, symbol C); format: in vivo, oval-leafed pondweed (Monochoria vaginalis)
Method in brief: as §1

barnyard grass [1] = experiment: Test Example 3: herbicidal effect by foliage application, Wagner pot (Table 18, symbol H); format: in vivo, barnyard grass (Echinochloa crus-galli); settings: 320 g/ha
Method in brief: (§2)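 Plants were sown in alluvial soil held under 0.1–0.5 cm standing water and grown 14 days in a greenhouse at 25–30 °C. An emulsifiable formulation, water-diluted to the set dose, was then sprayed onto the foliage, and effects were scored three weeks later using previously defined criteria.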

Chinese sprangletop = experiment: Test Example 3: herbicidal effect by foliage application, Wagner pot (Table 18, symbol D); format: in vivo, chinese sprangletop (Leptochloa chinensis); settings: 320 g/ha
Method in brief: as §2

rice flat sedge = experiment: Test Example 3: herbicidal effect by foliage application, Wagner pot (Table 18, symbol E); format: in vivo, rice flat sedge (Cyperus iria); settings: 320 g/ha
Method in brief: as §2

southern crabgrass [2] = experiment: Test Example 4: herbicidal effect by soil treatment (Table 19, symbol F); format: in vivo, southern crabgrass (Digitaria ciliaris)
Method in brief: (§3)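 Herbicidal effect was rated 3 weeks after treatment, using the scoring criteria of an earlier test. The compound, formulated as an emulsion and diluted in water to a set herbicide amount, had been sprayed uniformly on soil over freshly sown seeds. Growth took place in a greenhouse at 25° C. to 30° C.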

green foxtail [3] = experiment: Test Example 4: herbicidal effect by soil treatment (Table 19, symbol G); format: in vivo, green foxtail (Setaria viridis)
Method in brief: as §3

barnyard grass [4] = experiment: Test Example 4: herbicidal effect by soil treatment (Table 19, symbol H); format: in vivo, barnyard grass (Echinochloa crus-galli)
Method in brief: as §3

wild oat [5] = experiment: Test Example 4: herbicidal effect by soil treatment (Table 19, symbol I); format: in vivo, wild oat (Avena fatua)
Method in brief: as §3

blackgrass [6] = experiment: Test Example 4: herbicidal effect by soil treatment (Table 19, symbol J); format: in vivo, blackgrass (Alopecurus myosuroides)
Method in brief: as §3

Italian ryegrass [7] = experiment: Test Example 4: herbicidal effect by soil treatment (Table 19, symbol K); format: in vivo, Italian ryegrass (Lolium multiflorum)
Method in brief: as §3

windgrass [8] = experiment: Test Example 4: herbicidal effect by soil treatment (Table 19, symbol L); format: in vivo, windgrass (Apera spica-venti)
Method in brief: as §3

velvetleaf [9] = experiment: Test Example 4: herbicidal effect by soil treatment (Table 19, symbol M); format: in vivo, velvetleaf (Abutilon theophrasti)
Method in brief: as §3

redroot pigweed = experiment: Test Example 4: herbicidal effect by soil treatment (Table 19, symbol N); format: in vivo, redroot pigweed (Amaranthus retroflexus)
Method in brief: as §3

lambsquarters [10] = experiment: Test Example 4: herbicidal effect by soil treatment (Table 19, symbol O); format: in vivo, lambsquarters (Chenopodium album)
Method in brief: as §3

chickweed = experiment: Test Example 4: herbicidal effect by soil treatment (Table 19, symbol P); format: in vivo, common chickweed (Stellaria media)
Method in brief: as §3

persian speedwell [11] = experiment: Test Example 4: herbicidal effect by soil treatment (Table 19, symbol R); format: in vivo, Persian speedwell (Veronica persica)
Method in brief: as §3

southern crabgrass [12] = experiment: Test Example 5: herbicidal effect by foliage application, plastic box (Table 20, symbol F); format: in vivo, southern crabgrass (Digitaria ciliaris); settings: foliage application, 320 g/ha
Method in brief: (§4)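 Foliar spray test: emulsion formulation diluted in water to a set application rate, sprayed onto 14-day-old plants raised in diluvial soil at 25° C to 30° C under glass. Both herbicidal effect and crop effect rated visually three weeks later.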

green foxtail [13] = experiment: Test Example 5: herbicidal effect by foliage application, plastic box (Table 20, symbol G); format: in vivo, green foxtail (Setaria viridis); settings: foliage application, 320 g/ha
Method in brief: as §4

barnyard grass [14] = experiment: Test Example 5: herbicidal effect by foliage application, plastic box (Table 20, symbol H); format: in vivo, barnyard grass (Echinochloa crus-galli); settings: foliage application, 320 g/ha
Method in brief: as §4

wild oat [15] = experiment: Test Example 5: herbicidal effect by foliage application, plastic box (Table 20, symbol I); format: in vivo, wild oat (Avena fatua); settings: foliage application, 320 g/ha
Method in brief: as §4

blackgrass [16] = experiment: Test Example 5: herbicidal effect by foliage application, plastic box (Table 20, symbol J); format: in vivo, blackgrass (Alopecurus myosuroides); settings: foliage application, 320 g/ha
Method in brief: as §4

Italian ryegrass [17] = experiment: Test Example 5: herbicidal effect by foliage application, plastic box (Table 20, symbol K); format: in vivo, Italian ryegrass (Lolium multiflorum); settings: foliage application, 320 g/ha
Method in brief: as §4

windgrass [18] = experiment: Test Example 5: herbicidal effect by foliage application, plastic box (Table 20, symbol L); format: in vivo, windgrass (Apera spica-venti); settings: foliage application, 320 g/ha
Method in brief: as §4

velvetleaf [19] = experiment: Test Example 5: herbicidal effect by foliage application, plastic box (Table 20, symbol M); format: in vivo, velvetleaf (Abutilon theophrasti); settings: foliage application, 320 g/ha
Method in brief: as §4

lambsquarters [20] = experiment: Test Example 5: herbicidal effect by foliage application, plastic box (Table 20, symbol O); format: in vivo, lambsquarters (Chenopodium album); settings: foliage application, 320 g/ha
Method in brief: as §4

persian speedwell [21] = experiment: Test Example 5: herbicidal effect by foliage application, plastic box (Table 20, symbol R); format: in vivo, Persian speedwell (Veronica persica); settings: foliage application, 320 g/ha
Method in brief: as §4

[22] = amount of applied herbicide 320 g/ha

Structure (SMILES): COc1ccc(-c2sc3cc(OC)c(Cl)cc3c2-c2c(O)c(C)nn(C)c2=O)cc1 [5-070]
- Herbicidal effect, A: late watergrass (late watergrass; [22]): 0 (Herbicidal rate of 5% or less (almost no effect))
- Herbicidal effect, B: Japanese bulrush (Japanese bulrush; [22]): 2 (Herbicidal rate of 20% or more and less than 40%)
- Herbicidal effect, C: oval-leafed pondweed (oval-leafed pondweed; [22]): 0 (Herbicidal rate of 5% or less (almost no effect))
- herbicidal effect on barnyard grass (H) (barnyard grass [1]): 3 (Herbicidal rate of 40% or more and less than 70%)
- herbicidal effect on Chinese sprangletop (D) (Chinese sprangletop): 0 (Herbicidal rate of 5% or less (almost no effect))
- herbicidal effect on rice flat sedge (E) (rice flat sedge): 0 (Herbicidal rate of 5% or less (almost no effect))
- F: southern crabgrass, herbicidal effect grade (southern crabgrass [2]; [22]): 0 (Herbicidal rate of 5% or less (almost no effect))
- G: green foxtail, herbicidal effect grade (green foxtail [3]; [22]): 0 (Herbicidal rate of 5% or less (almost no effect))
- H: barnyard grass, herbicidal effect grade (barnyard grass [4]; [22]): 0 (Herbicidal rate of 5% or less (almost no effect))
- I: wild oat, herbicidal effect grade (wild oat [5]; [22]): 0 (Herbicidal rate of 5% or less (almost no effect))
- J: blackgrass, herbicidal effect grade (blackgrass [6]; [22]): 0 (Herbicidal rate of 5% or less (almost no effect))
- K: Italian ryegrass, herbicidal effect grade (Italian ryegrass [7]; [22]): 0 (Herbicidal rate of 5% or less (almost no effect))
- L: windgrass, herbicidal effect grade (windgrass [8]; [22]): 0 (Herbicidal rate of 5% or less (almost no effect))
- M: velvetleaf, herbicidal effect grade (velvetleaf [9]; [22]): 0 (Herbicidal rate of 5% or less (almost no effect))
- N: redroot pigweed, herbicidal effect grade (redroot pigweed; [22]): 0 (Herbicidal rate of 5% or less (almost no effect))
- O: lambsquarters, herbicidal effect grade (lambsquarters [10]; [22]): 0 (Herbicidal rate of 5% or less (almost no effect))
- P: chickweed, herbicidal effect grade (chickweed; [22]): 1 (Herbicidal rate of 5% or more and less than 20%)
- R: persian speedwell, herbicidal effect grade (persian speedwell [11]; [22]): 3 (Herbicidal rate of 40% or more and less than 70%)
- herbicidal effect on southern crabgrass (F) (southern crabgrass [12]; three weeks after application): 0 (Herbicidal rate of 5% or less (almost no effect))
- herbicidal effect on green foxtail (G) (green foxtail [13]; three weeks after application): 0 (Herbicidal rate of 5% or less (almost no effect))
- herbicidal effect on barnyard grass (H) (barnyard grass [14]; three weeks after application): 0 (Herbicidal rate of 5% or less (almost no effect))
- herbicidal effect on wild oat (I) (wild oat [15]; three weeks after application): 0 (Herbicidal rate of 5% or less (almost no effect))
- herbicidal effect on blackgrass (J) (blackgrass [16]; three weeks after application): 0 (Herbicidal rate of 5% or less (almost no effect))
- herbicidal effect on Italian ryegrass (K) (Italian ryegrass [17]; three weeks after application): 0 (Herbicidal rate of 5% or less (almost no effect))
- herbicidal effect on windgrass (L) (windgrass [18]; three weeks after application): 0 (Herbicidal rate of 5% or less (almost no effect))
- herbicidal effect on velvetleaf (M) (velvetleaf [19]; three weeks after application): 0 (Herbicidal rate of 5% or less (almost no effect))
- herbicidal effect on lambsquarters (O) (lambsquarters [20]; three weeks after application): 0 (Herbicidal rate of 5% or less (almost no effect))
- herbicidal effect on persian speedwell (R) (persian speedwell [21]; three weeks after application): 4 (Herbicidal rate of 70% or more and less than 90%)

Structure (SMILES): CCCCCCOc1ccc(-c2sc3ccc(F)cc3c2-c2c(OC(=O)CCC)c(C)nn(C)c2=O)cc1 [2-041]
- Herbicidal effect on A: late watergrass (grade 0-5) (late watergrass; 320 g/ha applied herbicide): 3 (Herbicidal rate of 40% or more and less than 70%)
- Herbicidal effect on B: Japanese bulrush (grade 0-5) (Japanese bulrush; 320 g/ha applied herbicide): 0 (Herbicidal rate of 5% or less (almost no effect))
- Herbicidal effect on C: oval-leafed pondweed (grade 0-5) (oval-leafed pondweed; 320 g/ha applied herbicide): 0 (Herbicidal rate of 5% or less (almost no effect))
- herbicidal effect on H (barnyard grass), rating 0-5 (barnyard grass [1]): 3 (Herbicidal rate of 40% or more and less than 70%)
- herbicidal effect on D (Chinese sprangletop), rating 0-5 (Chinese sprangletop): 3 (Herbicidal rate of 40% or more and less than 70%)
- herbicidal effect on E (rice flat sedge), rating 0-5 (rice flat sedge): 1 (Herbicidal rate of 5% or more and less than 20%)
- herbicidal effect rating, F: southern crabgrass (southern crabgrass [2]; 320 g/ha): 0 (Herbicidal rate of 5% or less (almost no effect))
- herbicidal effect rating, G: green foxtail (green foxtail [3]; 320 g/ha): 0 (Herbicidal rate of 5% or less (almost no effect))
- herbicidal effect rating, H: barnyard grass (barnyard grass [4]; 320 g/ha): 0 (Herbicidal rate of 5% or less (almost no effect))
- herbicidal effect rating, I: wild oat (wild oat [5]; 320 g/ha): 0 (Herbicidal rate of 5% or less (almost no effect))
- herbicidal effect rating, J: blackgrass (blackgrass [6]; 320 g/ha): 0 (Herbicidal rate of 5% or less (almost no effect))
- herbicidal effect rating, K: Italian ryegrass (Italian ryegrass [7]; 320 g/ha): 0 (Herbicidal rate of 5% or less (almost no effect))
- herbicidal effect rating, L: windgrass (windgrass [8]; 320 g/ha): 0 (Herbicidal rate of 5% or less (almost no effect))
- herbicidal effect rating, M: velvetleaf (velvetleaf [9]; 320 g/ha): 0 (Herbicidal rate of 5% or less (almost no effect))
- herbicidal effect rating, N: redroot pigweed (redroot pigweed; 320 g/ha): 0 (Herbicidal rate of 5% or less (almost no effect))
- herbicidal effect rating, O: lambsquarters (lambsquarters [10]; 320 g/ha): 2 (Herbicidal rate of 20% or more and less than 40%)
- herbicidal effect rating, P: chickweed (chickweed; 320 g/ha): 0 (Herbicidal rate of 5% or less (almost no effect))
- herbicidal effect rating, R: persian speedwell (persian speedwell [11]; 320 g/ha): 0 (Herbicidal rate of 5% or less (almost no effect))
- effect on southern crabgrass (F) (southern crabgrass [12]; 3 weeks after application): 0 (Herbicidal rate of 5% or less (almost no effect))
- effect on green foxtail (G) (green foxtail [13]; 3 weeks after application): 0 (Herbicidal rate of 5% or less (almost no effect))
- effect on barnyard grass (H) (barnyard grass [14]; 3 weeks after application): 0 (Herbicidal rate of 5% or less (almost no effect))
- effect on wild oat (I) (wild oat [15]; 3 weeks after application): 0 (Herbicidal rate of 5% or less (almost no effect))
- effect on blackgrass (J) (blackgrass [16]; 3 weeks after application): 0 (Herbicidal rate of 5% or less (almost no effect))
- effect on Italian ryegrass (K) (Italian ryegrass [17]; 3 weeks after application): 0 (Herbicidal rate of 5% or less (almost no effect))
- effect on windgrass (L) (windgrass [18]; 3 weeks after application): 0 (Herbicidal rate of 5% or less (almost no effect))
- effect on velvetleaf (M) (velvetleaf [19]; 3 weeks after application): 1 (Herbicidal rate of 5% or more and less than 20%)
- effect on lambsquarters (O) (lambsquarters [20]; 3 weeks after application): 3 (Herbicidal rate of 40% or more and less than 70%)
- effect on persian speedwell (R) (persian speedwell [21]; 3 weeks after application): 3 (Herbicidal rate of 40% or more and less than 70%)
